Assay results from patent publication US20120178915A1, “PYRIMIDINE DERIVATIVES AND ANALOGS, PREPARATION METHOD AND USE THEREOF” (priority 2009, published 2012).
In brackets after ≈: the same amount, converted by molar mass. Where two headings read alike, the source gives them in different places.

Key:
[1] = test system: Oral candidiasis; test: MIC broth microdilution; assay type: cell-based; settings: Microorganism 32, Oral candidiasis; 37° C., 24 h; read-out: Minimum Inhibitory Concentration, MIC
[2] = test system: Bacillus anthracis 1; test: microbe, parasite or virus in culture; assay type: cell-based; settings: Bacillus anthracis, 1, 24 h, read-out: Minimum Inhibitory Concentration, MIC
[3] = test system: Enterococcus faecalis 1513 (VRE); test: microbe, parasite or virus in culture; assay type: cell-based; settings: 24 h, read-out: Minimum Inhibitory Concentration, MIC
[4] = test system: Enterococcus fecal F631 (VRE); test: organism not typed; assay type: cell-based; settings: 24 h, read-out: Minimum Inhibitory Concentration, MIC
[5] = test system: Enterococcus faecalis 29212; test: microbe, parasite or virus in culture; assay type: cell-based; settings: 37° C., 24 h, read-out: Minimum Inhibitory Concentration, MIC
[6] = test system: Streptococcus pneumoniae 10351; test: microbe, parasite or virus in culture; assay type: cell-based; settings: 37° C., 24 h, read-out: Minimum Inhibitory Concentration, MIC
[7] = test system: Enterococcus faecalis F2518 (VRE); test: microbe, parasite or virus in culture; assay type: cell-based; settings: 24 h, read-out: Minimum Inhibitory Concentration, MIC
[8] = test system: Streptococcus agalactiae B; test: microbe, parasite or virus in culture; assay type: cell-based; settings: 37° C., 24 h, read-out: Minimum Inhibitory Concentration, MIC
[9] = test system: Gram-positive Bacteria; assay type: cell-based
[10] = MIC broth microdilution; assay type: cell-based; settings: Microorganism 33, Dermatophytosis; 37° C., 24 h; read-out: Minimum Inhibitory Concentration, MIC
[11] = test system: Corynebacterium diphtheriae; test: microbe, parasite or virus in culture; assay type: cell-based; settings: 37° C., 24 h, read-out: Minimum Inhibitory Concentration, MIC
[12] = test system: Bacillus subtilis 82; test: microbe, parasite or virus in culture; assay type: cell-based; settings: 37° C., 24 h, read-out: Minimum Inhibitory Concentration, MIC
[13] = test system: Staphylococcus aureus 704 (MRSA); test: microbe, parasite or virus in culture; assay type: cell-based; settings: 24 h, read-out: Minimum Inhibitory Concentration, MIC
[14] = test system: Clostridium tetani; test: microbe, parasite or virus in culture; assay type: cell-based; settings: 24 h
[15] = test system: Bacillus subtilis 168; test: microbe, parasite or virus in culture; assay type: cell-based; settings: 37° C., 24 h, read-out: Minimum Inhibitory Concentration, MIC
[16] = test system: Staphylococcus aureus 705 (MRSA); test: microbe, parasite or virus in culture; assay type: cell-based; settings: 24 h, read-out: Minimum Inhibitory Concentration, MIC
[17] = test system: Streptococcus pneumoniae 6301; test: microbe, parasite or virus in culture; assay type: cell-based; settings: 37° C., 24 h, read-out: Minimum Inhibitory Concentration, MIC
[18] = test system: Streptococcus pneumoniae 62; test: microbe, parasite or virus in culture; assay type: cell-based; settings: 37° C., 24 h, read-out: Minimum Inhibitory Concentration, MIC
[19] = test system: Staphylococcus aureus 43300 (MRSA); test: microbe, parasite or virus in culture; assay type: cell-based; settings: 24 h, read-out: Minimum Inhibitory Concentration, MIC
[20] = test system: Streptococcus pneumoniae M2; test: microbe, parasite or virus in culture; assay type: cell-based; settings: 37° C., 24 h, read-out: Minimum Inhibitory Concentration, MIC
[21] = test system: Enterococcus faecalis 51299; test: microbe, parasite or virus in culture; assay type: cell-based; settings: Enterococcus faecalis, 51299, 24 h, read-out: Minimum Inhibitory Concentration, MIC
[22] = test system: Staphylococcus aureus 29231; test: microbe, parasite or virus in culture; assay type: cell-based; settings: 37° C., 24 h, read-out: Minimum Inhibitory Concentration, MIC
[23] = test system: Enterococcus faecalis 19433; test: microbe, parasite or virus in culture; assay type: cell-based; settings: 37° C., 24 h, read-out: Minimum Inhibitory Concentration, MIC
[24] = test system: Bacillus cereus 246; test: microbe, parasite or virus in culture; assay type: cell-based; settings: 37° C., 24 h, read-out: Minimum Inhibitory Concentration, MIC
[25] = test system: MRSA 2152; test: Antibacterial studies in vivo, survival of mice infected with MRSA 2152; settings: dose mg/kg: ciprofloxacin 20, 3: 30, 7: 40, 21: 50, 33: 25, 70: 70; for Survival rate (%) (life prolongation rate): (survival days of test group − blank group)/blank group ×100%, MRSA 2152 mice, tail vein; for Survival: mice inoculated intraperitoneally with MRSA 2152, test compound by tail vein, repeated after six hours, saline 1.3 days
[26] = test system: Streptococcus bovis 10035; test: microbe, parasite or virus in culture; assay type: cell-based; settings: Streptococcus equinus, 37° C., 24 h, read-out: Minimum Inhibitory Concentration, MIC
[27] = test system: Streptococcus 10342; test: MIC broth microdilution; assay type: cell-based; settings: 37° C., 24 h, read-out: Minimum Inhibitory Concentration, MIC
[28] = test system: Enterococcus faecalis 583 (VRE); test: microbe, parasite or virus in culture; assay type: cell-based; settings: 24 h, read-out: Minimum Inhibitory Concentration, MIC
[29] = test system: Pyogenic Streptococcus; test: microbe, parasite or virus in culture; assay type: cell-based; settings: 37° C., 24 h, read-out: Minimum Inhibitory Concentration, MIC
[30] = test system: Clostridium perfringens; test: microbe, parasite or virus in culture; assay type: cell-based; settings: 24 h, read-out: Minimum Inhibitory Concentration, MIC
[31] = test system: Staphylococcus aureus 703 (MRSA); test: microbe, parasite or virus in culture; assay type: cell-based; settings: 24 h, read-out: Minimum Inhibitory Concentration, MIC
[32] = test system: Bacillus cereus 2; test: microbe, parasite or virus in culture; assay type: cell-based; settings: 37° C., 24 h, read-out: Minimum Inhibitory Concentration, MIC
[33] = test system: green Streptococcus 1009; test: microbe, parasite or virus in culture; assay type: cell-based; settings: 37° C., 24 h, read-out: Minimum Inhibitory Concentration, MIC
[34] = test system: Streptococcus pneumoniae 6303 (PRSP); test: microbe, parasite or virus in culture; assay type: cell-based; settings: 24 h, read-out: Minimum Inhibitory Concentration, MIC
[35] = Enterococcus faecalis (VRE), Staphylococcus aureus (MRSA), Streptococcus pneumoniae 6303 (PRSP), Bacillus cereus, Bacillus subtilis, Enterococcus faecalis, Staphylococcus aureus, Streptococcus pneumoniae, Streptococcus agalactiae B and streptococci 4
[36] = read-out: Minimum Inhibitory Concentration, MIC, Microorganism 29, Clostridium tetani, 37° C.
[37] = read-out: Minimum Inhibitory Concentration, MIC, Microorganism 30, Clostridium tetani (second line of that name), 37° C.

| Structure (SMILES) | MIC [1] | MIC [2] | MIC [3] | MIC [4] | MIC [5] | MIC [6] | MIC [7] | MIC [8] | MIC [10] | MIC [11] | MIC [12] | MIC [13] | MIC [14, 36] | MIC [14, 37] | MIC [15] | MIC [16] | MIC [17] | MIC [18] | MIC [19] | MIC [20] | also measured |
| --- | --- | --- | --- | --- | --- | --- | --- | --- | --- | --- | --- | --- | --- | --- | --- | --- | --- | --- | --- | --- | --- |
| Cc1c(-c2ccc(C(F)(F)F)cc2)[nH]c2c(-c3ccc(Cl)cc3Cl)c(C3CC3)nn2c1=O [Compound 21] | 88.5 µM (≈ 42.3 µg/mL) | 13.5 µM (≈ 6.46 µg/mL) | 2.3 µM (≈ 1.1 µg/mL) | 0.33 µM (≈ 0.158 µg/mL) | 0.32 µM (≈ 0.153 µg/mL) | 1.25 µM (≈ 0.598 µg/mL) | 2.5 µM (≈ 1.2 µg/mL) | 0.55 µM (≈ 0.263 µg/mL) | 33.7 µM (≈ 16.1 µg/mL) | 30.3 µM (≈ 14.5 µg/mL) | 0.68 µM (≈ 0.325 µg/mL) | 0.28 µM (≈ 0.134 µg/mL) | 30.2 µM (≈ 14.4 µg/mL) | 80.3 µM (≈ 38.4 µg/mL) | 0.46 µM (≈ 0.22 µg/mL) | 0.3 µM (≈ 0.143 µg/mL) | 0.23 µM (≈ 0.11 µg/mL) | 0.25 µM (≈ 0.12 µg/mL) | 0.35 µM (≈ 0.167 µg/mL) | 0.02 µM (≈ 0.00957 µg/mL) | inhibition of growth (conclusion from MICs) [9, 35]: significantly inhibited the growth; MIC [21]: 10.5 µM (≈ 5.02 µg/mL); MIC [22]: 0.6 µM (≈ 0.287 µg/mL); MIC [23]: 12.3 µM (≈ 5.88 µg/mL); MIC [24]: 1.55 µM (≈ 0.741 µg/mL); Survival rate (%) (life prolongation rate) [25]: 133.2%; Survival [25]: 3.2 days; MIC [26]: 1.25 µM (≈ 0.598 µg/mL); MIC [27]: 1.35 µM (≈ 0.646 µg/mL); MIC [28]: 0.11 µM (≈ 0.0526 µg/mL); MIC [29]: 1.23 µM (≈ 0.588 µg/mL); MIC [30]: 32 µM (≈ 15.3 µg/mL); MIC [31]: 0.42 µM (≈ 0.201 µg/mL); MIC [32]: 0.36 µM (≈ 0.172 µg/mL); MIC [33]: 1.55 µM (≈ 0.741 µg/mL); MIC [34]: 1.33 µM (≈ 0.636 µg/mL) |
| O=C1C(c2ccccc2)C(O)=Nc2cc(-c3ccc(C(F)(F)F)cc3)nn21 (stereo not shown) [Compound 42] | 21.3 µM (≈ 7.91 µg/mL) | 32.5 µM (≈ 12.1 µg/mL) | 20.1 µM (≈ 7.46 µg/mL) | 21.2 µM (≈ 7.87 µg/mL) | 20.5 µM (≈ 7.61 µg/mL) | 1.25 µM (≈ 0.464 µg/mL) | 18.2 µM (≈ 6.76 µg/mL) | 0.55 µM (≈ 0.204 µg/mL) | 52.1 µM (≈ 19.3 µg/mL) | 32 µM (≈ 11.9 µg/mL) | 0.02 µM (≈ 0.00743 µg/mL) | 230 µM (≈ 85.5 µg/mL) | 30.2 µM (≈ 11.2 µg/mL) | 80.3 µM (≈ 29.8 µg/mL) | 1.23 µM (≈ 0.457 µg/mL) | 180 µM (≈ 66.9 µg/mL) | 0.23 µM (≈ 0.0854 µg/mL) | 0.25 µM (≈ 0.0928 µg/mL) | 150 µM (≈ 55.8 µg/mL) | 0.02 µM (≈ 0.00743 µg/mL) | inhibition of growth (conclusion from MICs) ([9]; the majority of Bacillus cereus, Bacillus subtilis and Enterococcus faecalis): significantly inhibited the growth; MIC [21]: 21.2 µM (≈ 7.87 µg/mL); MIC [22]: 0.28 µM (≈ 0.104 µg/mL); MIC [23]: 18.2 µM (≈ 6.76 µg/mL); MIC [24]: 0.23 µM (≈ 0.0854 µg/mL); MIC [26]: 1.28 µM (≈ 0.475 µg/mL); MIC [27]: 15.5 µM (≈ 5.76 µg/mL); MIC [28]: 30.3 µM (≈ 11.3 µg/mL); MIC [29]: 1.23 µM (≈ 0.457 µg/mL); MIC [30]: 2.01 µM (≈ 0.746 µg/mL); MIC [31]: 172 µM (≈ 63.9 µg/mL); MIC [32]: 0.25 µM (≈ 0.0928 µg/mL); MIC [33]: 1.25 µM (≈ 0.464 µg/mL); MIC [34]: 203 µM (≈ 75.4 µg/mL) |
| Cc1c(-c2ccc(C#N)cc2)[nH]c2c(-c3ccc(Cl)cc3Cl)c(-c3ccccc3)nn2c1=O [Compound 70] | 120 µM (≈ 56.8 µg/mL) | 12.5 µM (≈ 5.89 µg/mL) | 2.5 µM (≈ 1.18 µg/mL) | 0.55 µM (≈ 0.259 µg/mL) | 2.5 µM (≈ 1.18 µg/mL) | 0.55 µM (≈ 0.259 µg/mL) | 0.55 µM (≈ 0.259 µg/mL) | 0.25 µM (≈ 0.118 µg/mL) | 125 µM (≈ 59.1 µg/mL) | 45.2 µM (≈ 21.3 µg/mL) | 1.25 µM (≈ 0.589 µg/mL) | 0.35 µM (≈ 0.165 µg/mL) | 80.2 µM (≈ 37.8 µg/mL) | 50.2 µM (≈ 23.7 µg/mL) | 1.25 µM (≈ 0.589 µg/mL) | 0.55 µM (≈ 0.259 µg/mL) | 0.2 µM (≈ 0.0943 µg/mL) | 10.5 µM (≈ 4.95 µg/mL) | 0.56 µM (≈ 0.264 µg/mL) | 0.63 µM (≈ 0.297 µg/mL) | inhibition of growth (conclusion from MICs) [9, 35]: significantly inhibited the growth; MIC [21]: 2.5 µM (≈ 1.18 µg/mL); MIC [22]: 0.55 µM (≈ 0.259 µg/mL); MIC [23]: 0.23 µM (≈ 0.108 µg/mL); MIC [24]: 1.32 µM (≈ 0.622 µg/mL); Survival rate (%) (life prolongation rate) [25]: 253.8%; Survival [25]: 4.6 days; MIC [26]: 0.02 µM (≈ 0.00943 µg/mL); MIC [27]: 1.23 µM (≈ 0.58 µg/mL); MIC [28]: 1.25 µM (≈ 0.589 µg/mL); MIC [29]: 1.33 µM (≈ 0.627 µg/mL); MIC [30]: 30.6 µM (≈ 14.4 µg/mL); MIC [31]: 1.25 µM (≈ 0.589 µg/mL); MIC [32]: 0.31 µM (≈ 0.146 µg/mL); MIC [33]: 0.23 µM (≈ 0.108 µg/mL); MIC [34]: 0.04 µM (≈ 0.0189 µg/mL) |
